Converted amounts (≈) assume the structure as drawn. The source made the active and inactive calls. The calls are words filed in the database; no cut-off is given here.

Assay [1] relates to Trypanosoma brucei rhodesiense. Nature of the assay: Antitrypanosomal activity against wild-type Trypanosoma brucei rhodesiense STIB900 by Alamar blue assay. The class given is functional, organism-based.
The subject of assay [2] is Trypanosoma brucei rhodesiense. Nature of the assay: Antitrypanosomal activity against pentamidine-resistant Trypanosoma brucei rhodesiense STIB900 by Alamar blue assay. In kind it is functional, organism-based.
For assay [3], the system named is Trypanosoma brucei rhodesiense. Description: Antitrypanosomal activity against melasoprol-resistant Trypanosoma brucei rhodesiense STIB900 by Alamar blue assay. The class given is functional, organism-based.
Assay [4] relates to Trypanosoma brucei gambiense. Nature of the assay: Antitrypanosomal activity against Trypanosoma brucei gambiense K03048 by Alamar blue assay. In kind it is functional, organism-based.
The test system of assay [5] is Trypanosoma brucei gambiense. Nature of the assay: Antitrypanosomal activity against Trypanosoma brucei gambiense ITMAP141267 by Alamar blue assay. The class given is functional, organism-based.
The test system of assay [6] is Trypanosoma brucei gambiense. Nature of the assay: Antitrypanosomal activity against Trypanosoma brucei gambiense STIB930 by Alamar blue assay. In kind it is functional, organism-based.
Assay [7] concerns Trypanosoma brucei brucei. Description: Antitrypanosomal activity against Trypanosoma brucei brucei BS221 by Alamar blue assay. The class given is functional, organism-based.
Assay [8] has as its system Trypanosoma brucei brucei. Nature of the assay: Antitrypanosomal activity against Trypanosoma brucei brucei AT1KO by Alamar blue assay. In kind it is functional, organism-based.
The test system of assay [9] is Trypanosoma brucei rhodesiense. Nature of the assay: Ratio of IC50 for pentamidine-resistant Trypanosoma brucei rhodesiense STIB900 to IC50 for wild-type Trypanosoma brucei rhodesiense STIB900. In kind it is functional.
The subject of assay [10] is Trypanosoma brucei rhodesiense. Description: Ratio of IC50 for melasoprol-resistant Trypanosoma brucei rhodesiense STIB900 to IC50 for wild-type Trypanosoma brucei rhodesiense […]. In kind it is functional.
A short description of assay [11]: Ratio of IC50 for Trypanosoma brucei gambiense K03048 to IC50 for wild-type Trypanosoma brucei rhodesiense STIB900. In kind it is functional.
Assay [12] in a line: Ratio of IC50 for Trypanosoma brucei gambiense ITMAP141267 to IC50 for wild-type Trypanosoma brucei rhodesiense […]. The class given is functional.
Assay [13] in a line: Ratio of IC50 for Trypanosoma brucei gambiense STIB930 to IC50 for wild-type Trypanosoma brucei rhodesiense […]. In kind it is functional.
The test system of assay [14] is Trypanosoma brucei brucei. Description: Ratio of IC50 for Trypanosoma brucei brucei AT1KO to IC50 for Trypanosoma brucei brucei BS221. In kind it is functional.
Assay [15] deals with Trypanosoma brucei gambiense. Nature of the assay: Ratio of IC50 for Trypanosoma brucei gambiense K03048 to IC50 for Trypanosoma brucei gambiense STIB930. The class given is functional.
For assay [16], the system named is Trypanosoma brucei rhodesiense. Nature of the assay: Antitrypanosomal activity against wild-type Trypanosoma brucei rhodesiense STIB900 infected in NMRI mouse assessed as cure from infection at 20 mg/kg, ip for 4 days. Details: dose 20 mg/kg. The class given is functional, organism-based.
For assay [17], the system named is Trypanosoma brucei rhodesiense. Nature of the assay: Antitrypanosomal activity against wild-type Trypanosoma brucei rhodesiense STIB900 infected in NMRI mouse assessed as cure from infection at 10 mg/kg, ip for 4 days. The class given is functional, organism-based. Also noted: dose 10 mg/kg.
For assay [18], the system named is Trypanosoma brucei rhodesiense. Nature of the assay: Antitrypanosomal activity against wild-type Trypanosoma brucei rhodesiense STIB900 infected in NMRI mouse assessed as cure from infection at 0.5 mg/kg, ip for 4 days. In kind it is functional, organism-based. Details: dose 0.5 mg/kg.
Assay [19] relates to Trypanosoma brucei rhodesiense. Description: Antitrypanosomal activity against wild-type Trypanosoma brucei rhodesiense STIB900 infected in NMRI mouse assessed as survival of mouse at 20 mg/kg, ip for 4 days. The following applies: route intraperitoneal. The class given is functional.
Assay [20] relates to Trypanosoma brucei rhodesiense. Description: Antitrypanosomal activity against wild-type Trypanosoma brucei rhodesiense STIB900 infected in NMRI mouse assessed as survival of mouse at 10 mg/kg, ip for 4 days. The following applies: route intraperitoneal. The class given is functional.
For assay [21], the system named is Trypanosoma brucei rhodesiense. Description: Antitrypanosomal activity against wild-type Trypanosoma brucei rhodesiense STIB900 infected in NMRI mouse assessed as survival of mouse at 5 mg/kg, ip for 4 days. The class given is functional. The following applies: route intraperitoneal.
Assay [22] concerns Trypanosoma brucei rhodesiense. Description: Antitrypanosomal activity against wild-type Trypanosoma brucei rhodesiense STIB900 infected in NMRI mouse assessed as survival of mouse at 2.5 mg/kg, ip for 4 days. The class given is functional. The following applies: route intraperitoneal.
Assay [23] deals with Trypanosoma brucei rhodesiense. Description: Antitrypanosomal activity against wild-type Trypanosoma brucei rhodesiense STIB900 infected in NMRI mouse assessed as survival of mouse at 0.5 mg/kg, ip for 4 days. In kind it is functional. The following applies: route intraperitoneal.
Assay [24] has as its system Trypanosoma brucei brucei. Nature of the assay: Antitrypanosomal activity against Trypanosoma brucei brucei GVR35 infected in NMRI mouse CNS model assessed as cure from infection at 20 mg/kg, ip for 5 days. The class given is functional, organism-based. Details: dose 20 mg/kg.
For assay [25], the system named is Trypanosoma brucei brucei. Nature of the assay: Antitrypanosomal activity against Trypanosoma brucei brucei GVR35 infected in NMRI mouse CNS model assessed as survival of mouse at 20 mg/kg, ip for 5 days. In kind it is functional. The following applies: route intraperitoneal.
Assay [26] concerns Trypanosoma brucei brucei. Description: Antitrypanosomal activity against Trypanosoma brucei brucei GVR35 infected in NMRI mouse CNS model assessed as survival of mouse at 20 mg/kg, ip for 10 days. The following applies: route intraperitoneal. In kind it is functional.
Assay [27] concerns Trypanosoma brucei rhodesiense. Nature of the assay: Antitrypanosomal activity against wild-type Trypanosoma brucei rhodesiense STIB900 infected in NMRI mouse assessed as cure from infection at 25 mg/kg, po for 4 days. In kind it is functional, organism-based. Details: dose 25 mg/kg.
Assay [28] relates to Trypanosoma brucei rhodesiense. Nature of the assay: Antitrypanosomal activity against wild-type Trypanosoma brucei rhodesiense STIB900 infected in NMRI mouse assessed as survival of mouse at 25 mg/kg, po for 4 days. The class given is functional.
Assay [29] has as its system Trypanosoma brucei rhodesiense. Description: Antitrypanosomal activity against wild-type Trypanosoma brucei rhodesiense STIB900 infected in NMRI mouse assessed as survival of mouse at 5 mg/kg, po for 4 days. In kind it is functional.
Assay [30] relates to Trypanosoma brucei brucei. Description: Antitrypanosomal activity against Trypanosoma brucei brucei GVR35 infected in NMRI mouse CNS model assessed as cure from infection at 100 mg/kg, po for 5 days. Details: dose 100 mg/kg. In kind it is functional, organism-based.
The subject of assay [31] is Trypanosoma brucei brucei. Description: Antitrypanosomal activity against Trypanosoma brucei brucei GVR35 infected in NMRI mouse CNS model assessed as survival of mouse at 100 mg/kg, po for 5 days. The class given is functional.
Assay [32] has as its system Trypanosoma brucei brucei. Nature of the assay: Antitrypanosomal activity against Trypanosoma brucei brucei GVR35 infected in NMRI mouse CNS model assessed as survival of mouse at 50 mg/kg, po for 5 days. The class given is functional.
Assay [33] relates to Trypanosoma brucei brucei. Description: Antitrypanosomal activity against Trypanosoma brucei brucei GVR35 infected in NMRI mouse CNS model assessed as survival of mouse at 75 mg/kg, po for 5 days. In kind it is functional.
The subject of assay [34] is Trypanosoma brucei brucei. Nature of the assay: Antitrypanosomal activity against Trypanosoma brucei brucei GVR35 infected in NMRI mouse CNS model assessed as cure from infection at 20 mg/kg, ip for 10 days. In kind it is functional, organism-based. Also noted: dose 20 mg/kg.
Assay [35] concerns Trypanosoma brucei brucei. Nature of the assay: Antitrypanosomal activity against Trypanosoma brucei brucei GVR35 infected in NMRI mouse CNS model assessed as cure from infection at 10 mg/kg, ip for 10 days. Also noted: dose 10 mg/kg. In kind it is functional, organism-based.
For assay [36], the system named is Trypanosoma brucei brucei. Description: Antitrypanosomal activity against Trypanosoma brucei brucei GVR35 infected in NMRI mouse CNS model assessed as survival of mouse at 10 mg/kg, ip for 10 days. In kind it is functional. The following applies: route intraperitoneal.
The test system of assay [37] is Trypanosoma brucei rhodesiense. Description: Antitrypanosomal activity against wild-type Trypanosoma brucei rhodesiense STIB900 infected in NMRI mouse assessed as cure from infection at 100 mg/kg, po for 4 days. The class given is functional, organism-based. Also noted: dose 100 mg/kg.
Assay [38] deals with Trypanosoma brucei rhodesiense. Nature of the assay: Antitrypanosomal activity against wild-type Trypanosoma brucei rhodesiense STIB900 infected in NMRI mouse assessed as survival of mouse at 100 mg/kg, po for 4 days. In kind it is functional.

In the case of `N=C(N)c1ccc(-c2ccc(-c3ccc(C(=N)N)cn3)o2)cc1`, the IC50 turned out to be 0.0024 µg/mL (≈ 0.00786 µM) in [1]; 0.0225 µg/mL (≈ 0.0737 µM) in assay [2]; 0.0292 µg/mL (≈ 0.0956 µM) in assay [3]; 0.0084 µg/mL (≈ 0.0275 µM) in assay [4]; 0.0057 µg/mL (≈ 0.0187 µM) in assay [5]; 0.0084 µg/mL (≈ 0.0275 µM) in [6]. The IC50 in assay [7] turned out to be 0.0028 µg/mL (≈ 0.00917 µM); in assay [8], 0.0429 µg/mL (≈ 0.14 µM). For the same molecule, the “Ratio IC50” value is 9.6 in assay [9]; 12.4 in [10]; 3.5 in [11]; 2.4 in [12]; 3.5 in assay [13]; 15.4 in assay [14]. In assay [15], the “Ratio IC50” value worked out at 14. The result in [16] and in assay [17] was Active. The result in assay [18] and in assay [24] was inactive. Also, the MSD in assay [19] was greater than 60 days; in assay [20], greater than 60 days; in [21], greater than 54.5 days; in assay [22], greater than 49 days; in assay [23], 29 days; in [25], 102.5 days. Further, the MSD in assay [26] was greater than 128.2 days.

With `CO/N=C(\N)c1ccc(-c2ccc(-c3ccc(/C(N)=N\O)cn3)o2)cc1`, the outcome in assay [27] and in assay [30] was Active. The MSD was greater than 60 days in assay [28]; greater than 39.5 days in assay [29]; greater than 180 days in [31]; greater than 157.2 days in assay [32]; greater than 164.8 days in assay [33].

With `N=C(N)c1ccc(-c2ccc(-c3ccc(C(=N)N)cn3)o2)nc1`, the IC50 is 0.0679 µg/mL (≈ 0.222 µM) in assay [2]; 0.0643 µg/mL (≈ 0.21 µM) in [3]; 0.0395 µg/mL (≈ 0.129 µM) in assay [4]; 0.0162 µg/mL (≈ 0.0529 µM) in assay [5]; 0.0351 µg/mL (≈ 0.115 µM) in assay [6]; 0.006 µg/mL (≈ 0.0196 µM) in [7]. For the same molecule, inhibition in assay [8] was half-maximal at 0.106 µg/mL (≈ 0.347 µM) (IC50). Besides, the “Ratio IC50” value stood at 10.5 in [9]; 10 in assay [10]; 6.1 in assay [11]; 2.5 in [12]; 5.4 in assay [13]; 17.8 in [14]. In addition, the “Ratio IC50” value in assay [15] is on record as 14. For the same molecule, the outcome in assay [16], in [17] and in assay [34] was Active. Moreover, the MSD was greater than 60 days in assay [19]; greater than 31 days in assay [23]; greater than 132.3 days in [25]; greater than 180 days in assay [26]; 95.6 days in [36]. Also, the result in assay [35] was inactive.

For `Nc1nc(N)nc(Nc2ccc([As]3SCC(CO)S3)cc2)n1` (stereo not drawn) [MELARSOPROL], the half-maximal inhibitory concentration (IC50) in assay [1] was 0.0014 µg/mL; in [2] it was 0.0282 µg/mL; in assay [3], 0.0567 µg/mL; in assay [4] it was 0.0031 µg/mL; in assay [5], 0.0027 µg/mL; in assay [6] it was 0.0053 µg/mL. The IC50 in assay [7] is 0.0036 µg/mL; in [8] it was 0.0187 µg/mL. The “Ratio IC50” value came out at 20.9 in assay [9]; 42 in assay [10]; 2.3 in [11]; 2 in assay [12]; 3.9 in assay [13]; 5.2 in [14]. Also, in [15], the “Ratio IC50” value is recorded as 14.

As to `N=C(NO)c1ccc(-c2ccc(-c3ccc(/C(N)=N\O)cc3)o2)cc1`, the result in assay [37] was inactive. In addition, in assay [38], the MSD was determined as 50 days.

The values are drawn from ChEMBL document CHEMBL1649218, “New treatment option for second-stage African sleeping sickness: in vitro and in vivo efficacy of aza analogs of DB289” (Antimicrob Agents Chemother, 2009).
